The nature of data set [1]: Human microsomal clearance assay. Type of data set: in vitro ADME. In short, it runs like this: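 Liver microsomes (0.5 mg/mL protein) were incubated with 1 μM compound at 37 °C, pH 7.4 phosphate, with an NADPH-regenerating system. Samples at 0-30 min were quenched and measured by LC-MS/MS for parent loss. No-NADPH controls were included.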
Data set [2] deals with HepDE19 cells. Nature of the data set: Cytotoxicity (CCK-8 cell viability) and selectivity index. Type of data set: cell-based, human. As to conditions: for CC50: cytotoxicity, concentration resulting in death of 50% of host cells; for Selectivity index (CC50/EC50): CC50 value/EC50 value. The text has this:
(§1) HepG2.2.15 and HepDE19 are stably-transfected cell lines containing the HBV genome. Both cell lines are derived from the hepatoblastoma cell line Hep G2 (American Type Culture Collection, ATCC® HB-8065™) by the published procedures described in references: M A Selles et al. Proc. Natl. Acad. Sci. USA 1987, 84, 1005-1009 and H Guo et al. Journal of Virology 2007, 81, 12472-12484, respectively. Both cell lines were maintained in Dulbecco's modified Eagle's medium (DMEM)-F12 medium supplemented with 10% fetal bovine serum, 100 U/mL penicillin, 100 μg/mL streptomycin, and 0.5 mg/mL of G418.
(§2) In a cell culture model, apparent antiviral activity of a compound can be the result of host cell death after exposure to the compound. To determine whether the anti-HBV effect of a test compound is due to cytotoxicity, HepDE19 cells were seeded into 96-well plates (5×10^3 cells per well) and treated with compounds as described above for EC50 determination. Five days after treatment, cell viability was measured by addition of 20 μL of CCK-8 reagent. Two hours after incubation at 37° C., the absorbance at wavelengths of 450 nm and 630 nm (OD450 and OD630) was recorded by a plate reader. The concentration results in the death of 50% of the host cells (CC50) of each compound was determined (See Table 5).

The subject of data set [3] is HBV replication in HepG2.2.15 cells. Nature of the data set: Anti-HBV activity in vitro in HepG2.2.15 cells (extracellular HBV DNA by qPCR). In kind it is cell-based. The settings on record: read-out: EC50. An outline of the steps:
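EC50 is derived from qPCR of extracellular viral DNA in culture supernatant after 5-day compound exposure. Cells (HepG2.2.15, stably carrying the HBV genome) were plated and incubated overnight at 37 °C before half-log dilution series were added at 0.5% final DMSO.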

A short description of data set [4]: Lyophilisation solubility assay (Lysa). Type of data set: physicochemical. The settings on record: for solubility thermodynamic: pH 6.5, aqueous buffer, thermodynamic from solid. An outline of the steps: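 DMSO was evaporated from 10 mM stocks, and residues were taken up in 0.05 M phosphate buffer pH 6.5, stirred 1 h, shaken 2 h and left overnight. Filtrates were quantified by UV or HPLC-UV against a four-point calibration, in duplicate. Values are in μg/ml, with a lower-bound value when >80% dissolved.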

Data set [5] is described as follows: Cytotoxicity (CCK-8 cell viability) and selectivity index. In kind it is cell-based, human. As to conditions: human, HepDE19 cells; cytotoxicity, concentration resulting in death of 50% of host cells.
Source text: as §1, §2

The mark [6] stands for this setting: Anti-HBV activity in HepG2.2.15 cells.
[7] abbreviates: Hepatitis B virus, HepG2.2.15, Anti-HBV activity in HepG2.2.15 cells.

Structures are written as SMILES. In brackets after ≈: the same amount, converted by molar mass. Like-named read-outs stand apart in the source and are kept apart here.

In the case of `COC(=O)C1=C(CN2[C@@H]3C[C@@H](CC(=O)O)C[C@H]2C(F)(F)C3)NC(c2nccs2)=N[C@H]1c1ccc(Cl)c(F)c1` (single isomer, unassigned) [Example 113, 2-[(1R,3R,5S)-8-[[(4S)-4-(4-chloro-3-fluoro-phenyl)-5-methoxycarbonyl-2-thiazol-2-yl-1,4-dihydropyrimidin-6-yl]methyl]-6,6-difluoro-8-azabicyclo[3.2.1]octan-3-yl]acetic acid or 2-[(1S,3S,5R)-8-[[(4S)-4-(4-chloro-3-fluoro-phenyl)-5-methoxycarbonyl-2-thiazol-2-yl-1,4-dihydropyrimidin-6-yl]methyl]-6,6-difluoro-8-azabicyclo[3.2.1]octan-3-yl]acetic acid], the CLh in data set [1] (human microsomal clearance) turned out to be 6.2 mL/min/kg. Besides, half-maximal cytotoxicity in data set [2] (CC50) was put at 58000 nM. In addition, the 50% effective concentration (EC50) in data set [3] (setting [6]) worked out at 9.1 nM.
As for `COC(=O)C1=C(CN2[C@H]3COC[C@@H]2C(F)(F)[C@H](CC(=O)O)C3)NC(c2nccs2)=N[C@H]1c1ccc(F)c(F)c1Cl` (single isomer, unassigned) [Example 131, 2-[(1R,5R,7S)-9-[[(4R)-4-(2-chloro-3,4-difluoro-phenyl)-5-methoxycarbonyl-2-thiazol-2-yl-1,4-dihydropyrimidin-6-yl]methyl]-6,6-difluoro-3-oxa-9-azabicyclo[3.3.1]nonan-7-yl]acetic acid or 2-[(1S,5S,7R)-9-[[(4R)-4-(2-chloro-3,4-difluoro-phenyl)-5-methoxycarbonyl-2-thiazol-2-yl-1,4-dihydropyrimidin-6-yl]methyl]-6,6-difluoro-3-oxa-9-azabicyclo[3.3.1]nonan-7-yl]acetic acid], the Lysa in data set [4] (0.05 M phosphate buffer (pH 6.5), reported as bigger than the value if more than 80% of the sample is in solution) was determined as 261 µg/mL. In data set [1] (human microsomal clearance), this compound registered a CLh of 0 mL/min/kg. Also, it took 53000 nM to reach half-maximal cytotoxicity in data set [2] (CC50). For the same compound, the EC50 in data set [3] (setting [6]) came to 5.7 nM.
On to `COC(=O)C1=C(CN2C3COCC2CC(O)C3)NC(c2nccs2)=N[C@H]1c1ccc(F)cc1Cl` (stereo partly drawn) [Example 7, (R)-4-(2-Chloro-4-fluoro-phenyl)-6-(7-hydroxy-3-oxa-9-aza-bicyclo[3.3.1]non-9-ylmethyl)-2-thiazol-2-yl-1,4-dihydro-pyrimidine-5-carboxylic acid methyl ester], for which the “Selectivity index (CC50/EC50)” value in data set [2] is above 8333. Further, the CC50 at 5 days in data set [5] is above 100000 nM. Also, the EC50 in data set [3] (setting [7]) was 12 nM.
Taken in the same sequence, the figures for `COC(=O)C1=C(CN2C3COCC2CN(CC(F)F)C3)NC(c2nccs2)=N[C@H]1c1ccc(F)cc1Cl` [Example 14, (R)-4-(2-Chloro-4-fluoro-phenyl)-6-[7-(2,2-difluoro-ethyl)-3-oxa-7,9-diaza-bicyclo[3.3.1]non-9-ylmethyl]-2-thiazol-2-yl-1,4-dihydro-pyrimidine-5-carboxylic acid methyl ester] were above 7692, above 100000 nM and 13 nM.
As to `COC(=O)C1=C(CN2C3COCC2CN(C(=O)OC)C3)NC(c2nccs2)=N[C@H]1c1ccc(F)cc1Cl` [Example 17, 9-[(R)-6-(2-Chloro-4-fluoro-phenyl)-5-methoxycarbonyl-2-thiazol-2-yl-3,6-dihydro-pyrimidin-4-ylmethyl]-3-oxa-7,9-diaza-bicyclo[3.3.1]nonane-7-carboxylic acid methyl ester], the “Selectivity index (CC50/EC50)” value in data set [2] came to 11628. Besides, half-maximal cytotoxicity in data set [5] (CC50 at 5 days) was put at 50000 nM. Further, in data set [3] (setting [7]), the EC50 turned out to be 4 nM.
Consider `COC(=O)CC1CC2COCC(C1)N2CC1=C(C(=O)OC)[C@H](c2ccc(F)cc2Cl)N=C(c2nccs2)N1` (stereo partly drawn) [Example 25, (R)-4-(2-Chloro-4-fluoro-phenyl)-6-(7-methoxycarbonylmethyl-3-oxa-9-aza-bicyclo[3.3.1]non-9-ylmethyl)-2-thiazol-2-yl-1,4-dihydro-pyrimidine-5-carboxylic acid methyl ester], for which, in data set [2], the “Selectivity index (CC50/EC50)” value was above 6897. The same compound had a CC50 at 5 days in data set [5] above 100000 nM. Besides, in data set [3] (setting [7]), the EC50 came out at 14.5 nM.
As to `COC(=O)C1=C(CN2[C@@H]3COC[C@H]2CC2(C3)N=N2)NC(c2nccs2)=N[C@H]1c1ccc(F)cc1Cl` [Example 43, (R)-6-(7-Diazirine-3-oxa-9-aza-bicyclo[3.3.1]non-9-ylmethyl)-4-(2-chloro-4-fluoro-phenyl)-2-thiazol-2-yl-1,4-dihydro-pyrimidine-5-carboxylic acid methyl ester], the “Selectivity index (CC50/EC50)” value in data set [2] amounted to 14845. Besides, the cytotoxic concentration (CC50) at 5 days in data set [5] turned out to be 43000 nM. Further, the EC50 in data set [3] (setting [7]) stood at 3 nM.
On the same counts, the results for `COC(=O)C1=C(CN2C3COCC2c2[nH]ncc23)NC(c2nccs2)=N[C@H]1c1ccc(F)cc1Cl` (stereo partly drawn) [Example 45, (R)-4-(2-Chloro-4-fluoro-phenyl)-6-(9-oxa-3,4,11-triaza-tricyclo[5.3.1.0*2,6*]undeca-2(6),4-dien-11-ylmethyl)-2-thiazol-2-yl-1,4-dihydro-pyrimidine-5-carboxylic acid methyl ester] are 85280, 43000 nM and 0.5 nM.
Turning to `CCOC(=O)C1=C(CN2[C@@H]3COC[C@H]2C[C@@H](NC(C)=O)C3)NC(c2nccs2)=N[C@H]1c1ccc(F)cc1Br` [Example 70, Ethyl (4R)-6-[[(1S,5R)-7-endo-acetamido-3-oxa-9-azabicyclo[3.3.1]nonan-9-yl]methyl]-4-(2-bromo-4-fluoro-phenyl)-2-thiazol-2-yl-1,4-dihydropyrimidine-5-carboxylate], the “Selectivity index (CC50/EC50)” value in data set [2] came to 7268. In data set [5], this compound showed a CC50 at 5 days of 60000 nM. The EC50 in data set [3] (setting [7]) is 8.2 nM.
Regarding `CCOC(=O)C1=C(CN2[C@@H]3COC[C@H]2C[C@H](NC(C)=O)C3)NC(c2nccs2)=N[C@H]1c1ccc(F)cc1Br` [Example 71, Ethyl (4R)-6-[[(1S,5R)-7-exo-acetamido-3-oxa-9-azabicyclo[3.3.1]nonan-9-yl]methyl]-4-(2-bromo-4-fluoro-phenyl)-2-thiazol-2-yl-1,4-dihydropyrimidine-5-carboxylate], the “Selectivity index (CC50/EC50)” value in data set [2] is on record as 14690. Further, it took 44000 nM to reach half-maximal cytotoxicity in data set [5] (CC50 at 5 days). Besides, the EC50 in data set [3] (setting [7]) turned out to be 3 nM.
Take `COC(=O)C1=C(CN2C3COCC2CC(CC(=O)O)C3)NC(c2nccs2)=N[C@H]1c1ccc(Cl)c(F)c1` (stereo partly drawn) [Example 136, Endo-2-[9-[[(4S)-4-(4-chloro-3-fluoro-phenyl)-5-methoxycarbonyl-2-thiazol-2-yl-1,4-dihydropyrimidin-6-yl]methyl]-3-oxa-9-azabicyclo[3.3.1]nonan-7-yl]acetic acid]: the solubility (thermodynamic) in data set [4] was 485 µg/mL (≈ 883 µM). Moreover, the CLh in data set [1] (human, 1 μM, pH 7.4) turned out to be 5.5 mL/min/kg. The 50% effective concentration (EC50) in data set [3] (setting [7]) stood at 102 nM.
Regarding `COC(=O)C1=C(CN2C3COCC2CC(N)(C(=O)O)C3)NC(c2nccs2)=N[C@H]1c1ccc(F)cc1Cl` (stereo partly drawn) [Example 139, 7-amino-9-[[(4R)-4-(2-chloro-4-fluoro-phenyl)-5-methoxycarbonyl-2-thiazol-2-yl-1,4-dihydropyrimidin-6-yl]methyl]-3-oxa-9-azabicyclo[3.3.1]nonane-7-carboxylic acid], the solubility (thermodynamic) in data set [4] was above 610 µg/mL. In data set [1] (human, 1 μM, pH 7.4), this compound returned a CLh of 5.1 mL/min/kg. Also, the EC50 in data set [3] (setting [7]) is 172 nM.
Taken in the same sequence, the figures for `COC(=O)C1=C(CN2[C@H]3CC[C@]2(C(=O)O)CC3(F)F)NC(c2nccs2)=N[C@H]1c1ccc(F)cc1Cl` [Example 148, (1S,4R)-7-[[(4R)-4-(2-chloro-4-fluoro-phenyl)-5-methoxycarbonyl-2-thiazol-2-yl-1,4-dihydropyrimidin-6-yl]methyl]-2,2-difluoro-7-azabicyclo[2.2.1]heptane-4-carboxylic acid] were above 655 µg/mL, 2.3 mL/min/kg and 59.2 nM.
Taken in the same sequence, the figures for `COC(=O)C1=C(CN2[C@@H]3CC[C@@]2(C(=O)O)CC3(F)F)NC(c2nccs2)=N[C@H]1c1ccc(F)cc1Cl` [Example 149, (1R,4S)-7-[[(4R)-4-(2-chloro-4-fluoro-phenyl)-5-methoxycarbonyl-2-thiazol-2-yl-1,4-dihydropyrimidin-6-yl]methyl]-2,2-difluoro-7-azabicyclo[2.2.1]heptane-4-carboxylic acid] were above 665 µg/mL, 3.4 mL/min/kg and 4 nM.

(Values after US9266904B2, “6-bridged heteroaryldihydropyrimidines for the treatment and prophylaxis of hepatitis B virus infection” (priority 2013, dated 2016).)
